Experimental data taken from PubChem BioAssay (NCI).
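Compound exposure: 48 hours, 5 concentrations, 96-well plates. GI50 = concentration required for 50% inhibition of growth. TGI is the concentration that stops growth completely.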

Assays:
Assay in all cases: NCI anticancer screen, dose series, 48 h
786-0 renal = system: 786-0 renal
CCRF-CEM leukemia = system: CCRF-CEM leukemia
HCT-15 colon = system: HCT-15 colon
HOP-62 NSCLC = system: HOP-62 NSCLC
MCF7 breast = system: MCF7 breast
NCI-H226 lung = system: NCI-H226 lung
NCI/ADR-RES ovarian = system: NCI/ADR-RES ovarian
OVCAR-5 ovarian = system: OVCAR-5 ovarian
SF-539 CNS = system: SF-539 CNS
SNB-75 CNS = system: SNB-75 CNS

SMILES	GI50 (786-0 renal) [µM]	TGI (786-0 renal) [µM]	GI50 (CCRF-CEM leukemia) [µM]	TGI (CCRF-CEM leukemia) [µM]	GI50 (HCT-15 colon) [µM]	TGI (HCT-15 colon) [µM]	GI50 (HOP-62 NSCLC) [µM]	TGI (HOP-62 NSCLC) [µM]	GI50 (MCF7 breast) [µM]	TGI (MCF7 breast) [µM]	GI50 (NCI-H226 lung) [µM]	TGI (NCI-H226 lung) [µM]	GI50 (NCI/ADR-RES ovarian) [µM]	TGI (NCI/ADR-RES ovarian) [µM]	GI50 (OVCAR-5 ovarian) [µM]	TGI (OVCAR-5 ovarian) [µM]	GI50 (SF-539 CNS) [µM]	TGI (SF-539 CNS) [µM]	GI50 (SNB-75 CNS) [µM]	TGI (SNB-75 CNS) [µM]
CN(C)c1ncnc2c1ccn2C1OC(CO)C(O)C1O (stereo not drawn)	3.98	97.8	0.234	1.76	1.1	> 66.2	1.71	> 100	0.115	7.32	> 100	> 100	1.3	> 30.1	5.51	> 100	> 33.5	> 100	1.64	22.5
CC(=O)n1c(-c2ccc(Cl)c(Cl)c2)cn(-c2ccc(Cl)cc2)c1=O	13.4	32.9	16.8	38	63.7	> 100	20.4	43.8	30.8	> 100	24.3	74.5	35.2	> 100	55	> 100	14.1	31.9	13.6	31.4
O=c1[nH]nc(-c2ccccc2)c2c(-c3ccccc3)onc12	5.47	> 100	3.69	> 100	0.554	> 100		> 100	0.368	> 100	> 21	> 100	0.331	> 100	> 62.8	> 100	0.351	1.79	0.96	> 21.9
Cc1cc(Cl)ccc1Nc1nc(C(F)(F)F)ccc1C(=O)Nc1cccc(C(F)(F)F)c1	3.61	12.9	3.41	14.7	2.56	7.35	2.6	11.9	2.28	7.71	4.05	17.6	3.38	14.7	4.75	19.3	3.27	14.7	3.41	11.5
CCc1nc(N)nc(N)c1C#CC(C)c1cc(-c2ccnc(C)c2)c2oc(C)nc2c1 (stereo not drawn)	< 0.01	5.54	< 0.01	29.9	< 0.01	11.3	< 0.01	5.92	0.0118	11.9	0.913	11.2	0.0146	10.1	< 0.0103	13.6	< 0.01	2.4	0.278	3.78
C=C(C)C(=O)O[C@H]1CC2=CC(CC(C)=C[C@H]3OC(=O)C(=C)C13)OC2=O (stereo partly drawn)		24.4		17.9		25.6				49.1		> 100		> 100		> 100		> 100		> 100
Cc1ccc(-c2c3c(N)c4c(nc3nc3c2c(C)nn3-c2ccccc2)CCC4)cc1	1.87	3.65	2.54	7.2	2.11	5.15	2.7	8.23	1.75	4.34	22.1	53.7	8.23	32.3	5.69	13.1	1.86	3.46	2.07	6.66
COc1ccc2c(c1)C=C1CSCC3=Cc4cc(OC)ccc4OC13O2	0.821	> 100	0.328	> 85.3	0.359	> 100	0.407	> 100	0.313	> 100		> 100	0.308	> 100	0.757	> 100	0.254	0.816	0.183	0.598
c1ccc(/C(=N\Nc2ccc3ccccc3n2)c2ccccn2)cc1	0.509	4.35	0.298	1.47	0.417	14.8	1.21	15.9	0.907	11.5	0.534	5.16	0.387	14.2	0.81	43	0.682	4.57	2.56	> 85.2
O=C1COCCN1c1ccc(NCc2cn(C(=O)c3ccc(Cl)cc3)c3ccccc23)cc1	2.7	> 100	5.62	> 100	4.07	91.2	1.06	> 100	0.293	15	0.159	0.543	5.77	55.8	0.187	0.622	8.49	26.2	2.6	52.6
O=C1NC(SCc2ccc(F)cc2)=N/C1=C/c1cccc(OCc2ccc(Cl)cc2)c1	2.88	8.8	64.2	> 100	55.3	> 100			19.7	> 100	5.42	> 100	22.2	> 100	> 100	> 100	4.87	72.2	10.1	> 100
CCC(=O)c1c(C(F)(F)F)n([O-])c2ccccc2[n+]1=O	1.66	8.17	0.621	10.5	1.09	4.88	0.7	3.54	1.08	6.72	2.09	9.06	1.36	13.3	3.89	13.1	2.81	10.2	3.79	24.8
Nc1ccccc1C#C/C=C\C#Cc1ccccc1F	9.28	23.6	0.729	7.14	5.17	19.7	6.66	20.8	3.2	> 100	15.2	33.3	2.47	6.73	9.31	23.9	3.82	15.7		
